In ChEMBL document CHEMBL3217430, “Experimental validation of in silico target predictions on synergistic protein targets” (Medchemcomm, 2013):
Active and inactive are the calls of the source. The calls are words filed in the database; no cut-off is given here.

Experiments:
HeLa [1] = experiment: Cytotoxicity against human HeLa cells assessed as cell viability at 120 uM after 3 days by CellTiter96 Aqueous One Solution assay; type: functional, cell-based
DNA topoisomerase 1 = target: T1, DNA topoisomerase 1 (Homo sapiens, UniProt P11387); experiment: Inhibition of human topoisomerase 1 activity assessed as DNA triplex formation and presence of supercoiled DNA by microplate assay
T1 sequence (P11387 whole entry): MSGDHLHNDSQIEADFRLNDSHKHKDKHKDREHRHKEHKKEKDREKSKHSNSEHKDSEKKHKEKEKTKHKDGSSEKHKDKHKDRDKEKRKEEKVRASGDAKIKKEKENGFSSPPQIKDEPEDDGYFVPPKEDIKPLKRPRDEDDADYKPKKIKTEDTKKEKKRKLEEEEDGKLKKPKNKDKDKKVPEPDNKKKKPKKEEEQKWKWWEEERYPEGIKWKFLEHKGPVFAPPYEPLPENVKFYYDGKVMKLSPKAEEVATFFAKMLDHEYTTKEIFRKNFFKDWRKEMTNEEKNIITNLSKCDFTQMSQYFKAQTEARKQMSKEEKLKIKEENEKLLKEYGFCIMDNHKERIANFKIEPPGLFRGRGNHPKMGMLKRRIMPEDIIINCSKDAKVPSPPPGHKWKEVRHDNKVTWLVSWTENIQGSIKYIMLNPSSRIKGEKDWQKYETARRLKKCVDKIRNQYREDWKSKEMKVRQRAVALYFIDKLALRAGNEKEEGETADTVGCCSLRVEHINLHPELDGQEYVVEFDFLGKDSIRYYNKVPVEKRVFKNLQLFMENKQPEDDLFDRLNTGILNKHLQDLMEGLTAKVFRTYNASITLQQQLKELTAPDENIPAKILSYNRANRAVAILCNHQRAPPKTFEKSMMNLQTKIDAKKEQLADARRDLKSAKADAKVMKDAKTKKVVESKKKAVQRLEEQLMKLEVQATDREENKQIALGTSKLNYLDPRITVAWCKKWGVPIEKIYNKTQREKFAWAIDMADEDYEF

Escherichia coli = experiment: Inhibition of Escherichia coli topoisomerase assessed as bacterial proliferation at 200 uM after 24 hrs by visual inspection assay
HeLa [2] = experiment: Cytotoxicity against human HeLa cells assessed as cell viability at 120 uM after 3 days by CellTiter96 Aqueous One Solution assay (reference value: 100%); type: functional; conditions: 72 h, read-out: Activity
[3] = target: T2, ATP-dependent translocase ABCB1 (Homo sapiens, UniProt P08183); experiment: Inhibition of P-glycoprotein 1 in human HeLa cells assessed as intracellular accumulation of Hoechst 33342 dye after 30 mins by fluorescence microscopic analysis; type: cell-based
T2 sequence (P08183 whole entry): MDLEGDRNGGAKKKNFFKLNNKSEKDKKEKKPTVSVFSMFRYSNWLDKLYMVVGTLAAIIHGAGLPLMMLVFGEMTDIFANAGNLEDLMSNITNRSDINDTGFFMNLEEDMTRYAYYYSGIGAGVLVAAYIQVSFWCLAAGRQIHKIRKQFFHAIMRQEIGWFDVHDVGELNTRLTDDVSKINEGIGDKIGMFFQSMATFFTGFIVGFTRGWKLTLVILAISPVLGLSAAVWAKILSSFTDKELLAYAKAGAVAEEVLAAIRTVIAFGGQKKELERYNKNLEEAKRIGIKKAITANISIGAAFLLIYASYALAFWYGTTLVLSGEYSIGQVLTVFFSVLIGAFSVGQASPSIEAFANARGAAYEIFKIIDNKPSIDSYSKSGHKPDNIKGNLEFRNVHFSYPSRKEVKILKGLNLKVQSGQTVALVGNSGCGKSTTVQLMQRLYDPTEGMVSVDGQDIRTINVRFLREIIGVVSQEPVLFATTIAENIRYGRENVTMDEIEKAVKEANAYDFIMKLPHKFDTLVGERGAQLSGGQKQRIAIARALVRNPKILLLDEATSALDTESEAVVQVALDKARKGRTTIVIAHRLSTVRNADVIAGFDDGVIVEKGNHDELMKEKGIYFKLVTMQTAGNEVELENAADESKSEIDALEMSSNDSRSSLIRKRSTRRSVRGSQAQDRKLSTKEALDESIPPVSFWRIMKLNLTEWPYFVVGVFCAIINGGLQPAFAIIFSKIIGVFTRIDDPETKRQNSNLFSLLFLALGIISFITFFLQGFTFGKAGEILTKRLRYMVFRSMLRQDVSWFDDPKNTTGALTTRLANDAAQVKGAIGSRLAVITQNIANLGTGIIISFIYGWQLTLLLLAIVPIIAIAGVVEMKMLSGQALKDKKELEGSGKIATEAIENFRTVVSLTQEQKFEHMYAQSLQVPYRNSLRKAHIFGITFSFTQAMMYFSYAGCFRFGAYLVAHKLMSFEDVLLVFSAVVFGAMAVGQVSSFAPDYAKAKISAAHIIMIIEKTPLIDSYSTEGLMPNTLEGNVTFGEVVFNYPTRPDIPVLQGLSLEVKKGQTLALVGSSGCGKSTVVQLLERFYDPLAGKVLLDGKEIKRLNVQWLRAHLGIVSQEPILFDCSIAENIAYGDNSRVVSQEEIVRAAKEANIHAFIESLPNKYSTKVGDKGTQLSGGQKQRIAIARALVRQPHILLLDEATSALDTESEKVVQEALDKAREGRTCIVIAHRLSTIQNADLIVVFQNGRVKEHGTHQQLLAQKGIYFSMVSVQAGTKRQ

HeLa [4] = experiment: Effect on apoptosis in human HeLa cells assessed as cell morphology and extracellular membrane after 48 hrs; type: functional, cell-based
[5] = target: T2, ATP-dependent translocase ABCB1; experiment: Inhibition of human P-glycoprotein 1 ATPase activity assessed as remaining ATP level by luminescence analysis

Question: `CC(=O)OCC(OC(C)=O)C(OC(C)=O)C(OC(C)=O)C(OC(C)=O)C(OC(C)=O)OC(C)=O` (centres undefined) was tested. Which Activity (HeLa [1]) did it give?
Answer: inactive

Question: Which Activity (HeLa [1]) does the source give for `CO[C@@H]1O[C@H](CO)[C@H](O)[C@H](O)[C@H]1O` here?
Answer: inactive

Question: Which IC50 (DNA topoisomerase 1) does the source give for `CN(C=C(C#N)C#N)CC(O)C(O)C(O)C(O)CO` (centres undefined) here?
Answer: 47.5 µM

Question: What about the inhibition (Escherichia coli) of the same molecule?
Answer: inactive

Question: What about the Activity (HeLa [1]) of the same molecule?
Answer: inactive

Question: Which viability at 120 µM (HeLa [2]) does the source give for `CC(=O)c1ccc(OCC(O)CN2CCN(C(c3ccccc3)c3ccccc3)CC2)cc1` (centres undefined) here?
Answer: 37%

Question: Which Activity (HeLa [1]) does the source give for `CCSC(SCC)C(O)C(O)C(O)C(O)CO` (centres undefined) here?
Answer: inactive

Question: Which results are given for `CC(=O)OC[C@H](OC(C)=O)[C@H](OC(C)=O)[C@@H](CNC(=O)c1ccc(C)c(C)c1)OC(C)=O`?
Answer: IC50 [3]: 15.5 µM; Activity (HeLa [1]): inactive; Activity (HeLa [4]): inactive; IC50 [5]: 28 µM

Question: How did the IC50 [3] turn out when `CC(=O)OCC1OC(Sc2ccccc2)C(OC(C)=O)C(OC(C)=O)C1OC(C)=O` (centres undefined) was run?
Answer: 15.4 µM

Question: What about the viability at 120 µM (HeLa [2]) of the same molecule?
Answer: 87%

Question: And the Activity (HeLa [4])?
Answer: inactive

Question: And the IC50 [5]?
Answer: 37 µM

Question: `O=c1c(-c2ccc3c(c2)OCCO3)coc2cc(OC3OC(CO)C(O)C(O)C3O)ccc12` (centres undefined) was tested. Which viability at 120 µM (HeLa [2]) did it give?
Answer: 82%

Question: Which Activity (HeLa [1]) does the source give for `CC(=O)OCC(OC(C)=O)C(OC(C)=O)C(O)C1SCC(C(=O)N(C)C)N1C(C)=O` (centres undefined) here?
Answer: inactive

Question: Which results are given for `NC(=O)c1ncn([C@@H]2O[C@H](CO)[C@@H](O)[C@H]2O)n1` [RIBAVIRIN]?
Answer: IC50 (DNA topoisomerase 1): 65.9 µM; inhibition (Escherichia coli): inactive
